According to patent publication US20060194837A1, “Tetrahydroisoquinoline compounds” (priority 2004, published 2006):
Read-outs that look alike come from different tables or passages of the source.

Tests used:
human H3 receptor = target: T1, human H3 receptor (Homo sapiens, UniProt Q9Y5N1); assay: H3 receptor binding (N-[3H]-α-methylhistamine displacement); details: membranes of SK-N-MC cells expressing cloned human H3 receptor, 0.8 nM N-[3H]-α-methylhistamine, 60 min at 25° C.
T1 construct: expressed in transfected cells
T1 sequence (Q9Y5N1 whole entry): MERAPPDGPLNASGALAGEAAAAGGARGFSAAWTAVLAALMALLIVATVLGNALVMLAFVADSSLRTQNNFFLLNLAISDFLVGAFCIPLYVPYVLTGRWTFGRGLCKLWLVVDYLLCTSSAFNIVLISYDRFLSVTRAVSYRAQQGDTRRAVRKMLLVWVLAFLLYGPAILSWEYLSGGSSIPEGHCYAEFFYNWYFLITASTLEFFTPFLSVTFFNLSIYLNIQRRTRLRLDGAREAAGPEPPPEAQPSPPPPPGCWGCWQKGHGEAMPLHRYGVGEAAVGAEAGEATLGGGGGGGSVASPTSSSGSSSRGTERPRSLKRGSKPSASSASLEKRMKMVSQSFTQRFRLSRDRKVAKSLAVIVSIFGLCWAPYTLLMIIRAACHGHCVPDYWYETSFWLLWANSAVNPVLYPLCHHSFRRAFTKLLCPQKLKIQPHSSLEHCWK

Rat SERT = target: T2, Rat SERT (Rattus norvegicus, UniProt P31652); assay: Rat brain SERT binding ([3H]-citalopram displacement); details: rat brain membranes without cerebellum, 0.6 nM [3H]-citalopram, 60 min at 25° C.
T2 construct: A rat brain without cerebellum (Zivic Laboratories, Inc.—Pittsburgh, Pa.) was homogenized; tissue Zivic Laboratories, Inc; host or cells: rat brain without cerebellum, membranes
T2 sequence (P31652 whole entry): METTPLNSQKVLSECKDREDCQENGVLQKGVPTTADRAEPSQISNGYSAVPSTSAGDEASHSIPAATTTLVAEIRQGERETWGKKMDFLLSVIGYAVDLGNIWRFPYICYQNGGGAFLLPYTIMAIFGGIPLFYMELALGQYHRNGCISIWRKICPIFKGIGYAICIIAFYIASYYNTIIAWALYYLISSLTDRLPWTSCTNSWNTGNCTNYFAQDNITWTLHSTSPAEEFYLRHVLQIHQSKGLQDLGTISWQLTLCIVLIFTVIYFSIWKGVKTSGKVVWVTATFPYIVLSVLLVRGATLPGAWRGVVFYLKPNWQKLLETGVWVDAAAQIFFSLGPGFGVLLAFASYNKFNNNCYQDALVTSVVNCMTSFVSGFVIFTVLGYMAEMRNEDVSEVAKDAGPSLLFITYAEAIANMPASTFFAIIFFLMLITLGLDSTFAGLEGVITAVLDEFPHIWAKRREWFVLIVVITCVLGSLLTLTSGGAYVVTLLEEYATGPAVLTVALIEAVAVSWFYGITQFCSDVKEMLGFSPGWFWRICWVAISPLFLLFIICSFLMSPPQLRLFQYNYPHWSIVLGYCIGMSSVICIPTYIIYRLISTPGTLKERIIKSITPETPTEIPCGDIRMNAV
Experimental: The supernatant was removed and re-centrifuged at 15,000 rpm for 30 min. […] Membranes were incubated with 0.6 nM [^3H]-Citalopram plus/minus test compounds for 60 min at 25° C. and harvested by rapid filtration over GF/C glass fiber filters (pretreated with 0.3% polyethylenimine) followed by four washes with ice-cold buffer.

human SERT = target: T3, human SERT (Homo sapiens, UniProt P31645); assay: Human SERT binding (3H-citalopram displacement); details: HEK293 membranes expressing human SERT, rt 1 h
T3 construct: expressed in transfected cells; host or cells: HEK293 membranes
T3 sequence (P31645 whole entry): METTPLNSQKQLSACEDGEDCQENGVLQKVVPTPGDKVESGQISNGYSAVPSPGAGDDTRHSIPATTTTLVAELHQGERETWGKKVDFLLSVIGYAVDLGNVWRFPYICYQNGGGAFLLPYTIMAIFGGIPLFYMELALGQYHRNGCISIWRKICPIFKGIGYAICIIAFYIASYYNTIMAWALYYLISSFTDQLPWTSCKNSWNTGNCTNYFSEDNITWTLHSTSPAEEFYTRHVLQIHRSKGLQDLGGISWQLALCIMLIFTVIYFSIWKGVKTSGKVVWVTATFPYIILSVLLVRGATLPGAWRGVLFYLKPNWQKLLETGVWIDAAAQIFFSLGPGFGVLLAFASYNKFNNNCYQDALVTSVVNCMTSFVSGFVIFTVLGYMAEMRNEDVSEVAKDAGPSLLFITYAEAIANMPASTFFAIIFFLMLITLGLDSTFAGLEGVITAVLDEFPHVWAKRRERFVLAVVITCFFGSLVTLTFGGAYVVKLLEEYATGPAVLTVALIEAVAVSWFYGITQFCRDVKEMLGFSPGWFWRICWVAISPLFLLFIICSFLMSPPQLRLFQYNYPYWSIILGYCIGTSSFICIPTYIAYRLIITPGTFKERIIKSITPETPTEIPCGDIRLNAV
Experimental: Homogenized HEK293 (Human Embryonic Kidney) membranes expressing the human SERT were incubated with ^3H-citalopram (SERT) at rt for 1 h in 50 mM Tris, 120 mM NaCl, 5 mM KCl (pH 7.4). […] The membranes were washed and the radioactivity was counted as above.

Structure (SMILES) | Ki (human H3 receptor) [nM] | Ki (Rat SERT; read-out: Rat SERT Ki) [nM] | Ki (human SERT) [nM] | Ki (Rat SERT; Rat SERT Ki (nM)) [nM]
COc1ccc(C2CN(C)Cc3cc(OC4CCNCC4)ccc32)cc1 (stereo not drawn) [Example 148, 4-(4-Methoxy-phenyl)-2-methyl-7-(piperidin-4-yloxy)-1,2,3,4-tetrahydro-isoquinoline] | 262 | 3 | 5 | 
COc1ccc(C2CN(C(C)C)Cc3cc(OCCCN4CCCCC4)ccc32)cc1 (stereo not drawn) [Example 68, 2-Isopropyl-4-(4-methoxy-phenyl)-7-(3-piperidin-1-yl-propoxy)-1,2,3,4-tetrahydro-isoquinoline] | 1 | 22 | 89 | 
COc1ccc(C2CN(C)Cc3cc(OCC4CN(C(C)C)CCO4)ccc32)cc1 (stereo not drawn) [Example 254, 7-(4-Isopropyl-morpholin-2-ylmethoxy)-4-(4-methoxy-phenyl)-2-methyl-1,2,3,4-tetrahydro-isoquinoline] | 9 | 9 | 7 | 
CN1Cc2cc(OCCCN3CCC(F)CC3)ccc2C(c2ccc(Cl)cc2)C1 (stereo not drawn) [Example 47, 4-(4-Chloro-phenyl)-7-[3-(4-fluoro-piperidin-1-yl)-propoxy]-2-methyl-1,2,3,4-tetrahydro-isoquinoline] | 10 | 27 | 11 | 
CN1Cc2cc(OCCCN3CCC(F)CC3)ccc2C(c2cccc(F)c2)C1 (stereo not drawn) [Example 48, 4-(3-Fluoro-phenyl)-7-[3-(4-fluoro-piperidin-1-yl)-propoxy]-2-methyl-1,2,3,4-tetrahydro-isoquinoline] | 6 | 31 | 118 | 
CCCN1CCC(COc2ccc3c(c2)CN(C)CC3c2ccc(OC)c(F)c2)CC1 (stereo not drawn) [Example 112, 4-(3-Fluoro-4-methoxy-phenyl)-2-methyl-7-(1-propyl-piperidin-4-ylmethoxy)-1,2,3,4-tetrahydro-isoquinoline] | 9 | 5 | 6 | 
COc1ccc(C2CN(C)Cc3cc(OCCCN4C[C@@H](C)O[C@@H](C)C4)ccc32)cc1 (stereo partly drawn) [Example 32, 7-[3-(2,6-Dimethyl-morpholin-4-yl)-propoxy]-4-(4-methoxy-phenyl)-2-methyl-1,2,3,4-tetrahydro-isoquinoline] | 21 | 8 | 9 | 
COc1ccc(C2CN(C)Cc3cc(OCCCN4CCN(C(=O)C5CCC5)CC4)ccc32)cc1 (stereo not drawn) [Example 6, Cyclobutyl-(4-{3-[4-(4-methoxy-phenyl)-2-methyl-1,2,3,4-tetrahydro-isoquinolin-7-yloxy]-propyl}-piperazin-1-yl)-methanone] | 534 | 15 | 15 | 
CSc1ccc(C2CN(C)Cc3cc(OC4CCN(C5CC5)CC4)ccc32)cc1 (stereo not drawn) [Example 247, 7-(1-Cyclopropyl-piperidin-4-yloxy)-2-methyl-4-(4-methylsulfanyl-phenyl)-1,2,3,4-tetrahydro-isoquinoline] | 2 | 5 | 7 | 
CSc1ccc(C2CN(C)Cc3cc(OCC4CCN(C(C)C)CC4)ccc32)cc1 (stereo not drawn) [Example 103, 7-(1-Isopropyl-piperidin-4-ylmethoxy)-2-methyl-4-(4-methylsulfanyl-phenyl)-1,2,3,4-tetrahydro-isoquinoline] | 7 | 8 | 3 | 
CSc1ccc(C2CN(C)Cc3cc(OCCCN4CCOC[C@@H]4C)ccc32)cc1 (stereo partly drawn) [Example 215, 2-Methyl-7-[3-(3S-methyl-morpholin-4-yl)-propoxy]-4-(4-methylsulfanyl-phenyl)-1,2,3,4-tetrahydro-isoquinoline] | 5 | 1 | 5 | 
COc1ccc(C2CN(C)Cc3cc(OCCCN4CCCCC4CO)ccc32)cc1 (stereo not drawn) [Example 24, (1-{3-[4-(4-Methoxy-phenyl)-2-methyl-1,2,3,4-tetrahydro-isoquinolin-7-yloxy]-propyl}-piperidin-2-yl)-methanol] | 2 | 2 | 3 | 
COc1ccc(C2CN(C)Cc3cc(OCCCN4CCCC(F)C4)ccc32)cc1 (stereo not drawn) [Example 39, 7-[3-(3-Fluoro-piperidin-1-yl)-propoxy]-4-(4-methoxy-phenyl)-2-methyl-1,2,3,4-tetrahydro-isoquinoline] | 3 | 3 | 3 | 
COc1ccc(C2CN(C)Cc3cc(OCCCN4CCCC(CO)C4)ccc32)cc1 (stereo not drawn) [Example 23, (1-{3-[4-(4-Methoxy-phenyl)-2-methyl-1,2,3,4-tetrahydro-isoquinolin-7-yloxy]-propyl}-piperidin-3-yl)-methanol] | 2 | 2 | 4 | 

Results, then the compound that gave them:

Ki (human H3 receptor) [nM] | Ki (Rat SERT; read-out: Rat SERT Ki) [nM] | Ki (human SERT) [nM] | Ki (Rat SERT; Rat SERT Ki (nM)) [nM] | Structure (SMILES)
45 | 37 | 13 |  | COc1ccc(C2CN(C)Cc3cc(C#CCCN4CCSCC4)ccc32)cc1 (stereo not drawn) [Example 277, 4-(4-Methoxy-phenyl)-2-methyl-7-(4-thiomorpholin-4-yl-but-1-ynyl)-1,2,3,4-tetrahydro-isoquinoline]
11 | 8 | 11 |  | CCN1CCOC(COc2ccc3c(c2)CN(C)CC3c2ccc(OC)cc2)C1 (mixture of isomers) [Example 257, 7-(4-Ethyl-morpholin-2-ylmethoxy)-4-(4-methoxy-phenyl)-2-methyl-1,2,3,4-tetrahydro-isoquinoline]
5 | 4 | 5 |  | COc1ccc(C2CN(C)Cc3cc(OCC4CCN(CC(C)C)CC4)ccc32)cc1 (stereo not drawn) [Example 110, 7-(1-Isobutyl-piperidin-4-ylmethoxy)-4-(4-methoxy-phenyl)-2-methyl-1,2,3,4-tetrahydro-isoquinoline]
65 | 14 | 27 |  | COc1ccc(C2CN(C)Cc3cc(C#CCCN4CCC(F)(F)CC4)ccc32)cc1 (stereo not drawn) [Example 274, 7-[4-(4,4-Difluoro-piperidin-1-yl)-but-1-ynyl]-4-(4-methoxy-phenyl)-2-methyl-1,2,3,4-tetrahydro-isoquinoline]
86 | 18 | 9 |  | COc1ccc(C2CN(C)Cc3cc(C#CCCN4CCOCC4)ccc32)cc1 (stereo not drawn) [Example 276, 4-(4-Methoxy-phenyl)-2-methyl-7-(4-morpholin-4-yl-but-1-ynyl)-1,2,3,4-tetrahydro-isoquinoline]
1 |  | 3 | 2 | COc1ccc(C2CN(C)Cc3cc(OCCCN4CCCC4C)ccc32)cc1 (stereo not drawn) [Example 35, 4-(4-Methoxy-phenyl)-2-methyl-7-[3-(2-methyl-pyrrolidin-1-yl)-propoxy]-1,2,3,4-tetrahydro-isoquinoline]
22 | 4 | 8 |  | CSc1ccc(C2CN(C)Cc3cc(OCCCN4CCC(F)(F)CC4)ccc32)cc1 (stereo not drawn) [Example 216, 7-[3-(4,4-Difluoro-piperidin-1-yl)-propoxy]-2-methyl-4-(4-methylsulfanyl-phenyl)-1,2,3,4-tetrahydro-isoquinoline]
59 | 6 | 16 |  | CCOC(=O)N1CCN(CCCOc2ccc3c(c2)CN(C)CC3c2ccc(OC)cc2)CC1 (stereo not drawn) [Example 12, 4-{3-[4-(4-Methoxy-phenyl)-2-methyl-1,2,3,4-tetrahydro-isoquinolin-7-yloxy]-propyl}-piperazine-1-carboxylic acid ethyl ester]
8 | 3 | 15 |  | Cc1ccc(C2CN(C)Cc3cc(OCCCN4CCC(F)CC4)ccc32)cc1 (stereo not drawn) [Example 126, 7-[3-(4-Fluoro-piperidin-1-yl)-propoxy]-2-methyl-4-p-tolyl-1,2,3,4-tetrahydro-isoquinoline]
